Values joined by “and” are separate entries in the source; they are usually repeats but may differ in a detail not shown here. Equal values may be shown once. Read-outs that look alike come from different tables or passages of the source.
Assays:
ovine COX-1 = target: T1, ovine COX-1 (Ovis aries, UniProt P05979); assay: COX-1 inhibition, enzyme immune assay (EIA) kit
T1 sequence (P05979 25-600): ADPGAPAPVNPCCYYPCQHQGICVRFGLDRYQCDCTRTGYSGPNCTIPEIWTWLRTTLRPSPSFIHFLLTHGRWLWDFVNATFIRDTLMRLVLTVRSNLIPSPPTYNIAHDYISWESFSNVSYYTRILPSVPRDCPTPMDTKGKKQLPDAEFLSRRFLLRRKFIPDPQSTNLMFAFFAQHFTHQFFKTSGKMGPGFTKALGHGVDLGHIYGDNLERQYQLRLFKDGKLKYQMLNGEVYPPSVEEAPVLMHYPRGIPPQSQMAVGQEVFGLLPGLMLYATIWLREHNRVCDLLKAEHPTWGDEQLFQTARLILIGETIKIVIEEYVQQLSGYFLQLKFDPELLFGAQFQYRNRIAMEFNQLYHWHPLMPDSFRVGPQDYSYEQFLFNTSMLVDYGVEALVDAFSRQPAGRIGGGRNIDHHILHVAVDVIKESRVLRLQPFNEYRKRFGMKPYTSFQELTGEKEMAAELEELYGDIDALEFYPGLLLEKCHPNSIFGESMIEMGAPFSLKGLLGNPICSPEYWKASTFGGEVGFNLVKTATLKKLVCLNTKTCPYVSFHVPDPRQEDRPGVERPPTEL
Description: Colorimetric enzyme immunoassay (EIA) kits were done to screen for the isozyme-specific inhibition.

[1] = tested on: TNF-α in RAW264.7 macrophage cells; assay: In vitro measurement of TNF-α in RAW264.7 macrophage cells (RT-qPCR); format: cell-based
Description: Both Lipopolysaccharides (LPS) and hispidin were purchased from Sigma (Sigma-Aldrich, St. Louis, MO, USA)[40]. The foetal bovine serum (FBS) and Dulbecco’s modified Eagle’s medium (DMEM) were purchased from Hyclone (General Electric Healthcare Life Sciences, Mississauga, Canada), penicillin streptomycin (P/S) was purchased from Solarbio (Solarbio life sciences, Beijing, P. R. China). Results of all in vitro anti-inflammatory screening were obtained from the confirmatory diagnostic unit, VACSERA, Egypt.
DMEM was used to cultivate the macrophage cells RAW264.7 (Shanghai BOGO Industrial Co., Ltd., Shanghai, China), and supplemented with 10% FBS and 1% P/S (100 U/ml and […], respectively). […] They were treated with various concentrations of hispidin, then with 1 μg/ml LPS for the indicated time.
PBS (1 ml/well) was used to wash the cells in 24-well plates. […] For the experiments, CL Buffer included MgCl2 (M1028; Sigma) or RNasin Plus RNase Inhibitor (N2615; Promega). Before use, both Bio-Rad SPR and CL buffer were equilibrated to room temperature. […] Carefully, the resulting lysates were collected and either analysed immediately or stored frozen ([…]).
RT-qPCR analysis was performed in one-step SYBR Green RT-qPCR. […] A CFX96 real-time PCR instrument (Bio-Rad) was used under the following protocol: 50uC for 10 min, 95uC for 5 min, 95uC for 10 s/61uC for 15 s/72uC for 30 s.
Total RNA purified from cells was used as an RT-qPCR quantification standard.

COX-2 = target: T2, COX-2 (Ovis aries, UniProt P79208); assay: COX-2 inhibition, enzyme immune assay (EIA) kit; format: biochemical, ovine; conditions: for S.I (IC50 COX-1/IC50 COX-2): COX-2 selectivity index; for SI: lab report, COX1/COX2
T2 sequence (P79208 17-603): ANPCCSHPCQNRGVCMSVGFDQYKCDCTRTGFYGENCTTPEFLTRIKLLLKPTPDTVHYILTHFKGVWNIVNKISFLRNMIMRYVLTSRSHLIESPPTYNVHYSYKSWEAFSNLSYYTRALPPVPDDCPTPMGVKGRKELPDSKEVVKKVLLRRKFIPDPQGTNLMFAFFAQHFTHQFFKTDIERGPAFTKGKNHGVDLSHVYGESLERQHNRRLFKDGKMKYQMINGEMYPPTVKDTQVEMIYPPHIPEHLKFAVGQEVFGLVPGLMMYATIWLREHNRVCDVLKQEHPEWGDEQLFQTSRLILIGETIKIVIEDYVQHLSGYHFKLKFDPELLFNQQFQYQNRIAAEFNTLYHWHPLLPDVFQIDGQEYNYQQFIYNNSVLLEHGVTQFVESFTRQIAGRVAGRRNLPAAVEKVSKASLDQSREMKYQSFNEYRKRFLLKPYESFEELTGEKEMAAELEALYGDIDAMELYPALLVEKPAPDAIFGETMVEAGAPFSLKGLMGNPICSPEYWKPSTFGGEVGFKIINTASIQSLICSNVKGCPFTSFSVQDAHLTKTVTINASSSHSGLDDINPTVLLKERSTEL

5-LOX enzyme = target: T3, 5-LOX enzyme (Homo sapiens, UniProt P09917); assay: 5-LOX inhibition, Human Lipoxygenase Inhibitor Screening Assay (EIA) kit; format: biochemical
T3 construct: purchased Cayman Chemical K980-100
T3 sequence (P09917 1-674): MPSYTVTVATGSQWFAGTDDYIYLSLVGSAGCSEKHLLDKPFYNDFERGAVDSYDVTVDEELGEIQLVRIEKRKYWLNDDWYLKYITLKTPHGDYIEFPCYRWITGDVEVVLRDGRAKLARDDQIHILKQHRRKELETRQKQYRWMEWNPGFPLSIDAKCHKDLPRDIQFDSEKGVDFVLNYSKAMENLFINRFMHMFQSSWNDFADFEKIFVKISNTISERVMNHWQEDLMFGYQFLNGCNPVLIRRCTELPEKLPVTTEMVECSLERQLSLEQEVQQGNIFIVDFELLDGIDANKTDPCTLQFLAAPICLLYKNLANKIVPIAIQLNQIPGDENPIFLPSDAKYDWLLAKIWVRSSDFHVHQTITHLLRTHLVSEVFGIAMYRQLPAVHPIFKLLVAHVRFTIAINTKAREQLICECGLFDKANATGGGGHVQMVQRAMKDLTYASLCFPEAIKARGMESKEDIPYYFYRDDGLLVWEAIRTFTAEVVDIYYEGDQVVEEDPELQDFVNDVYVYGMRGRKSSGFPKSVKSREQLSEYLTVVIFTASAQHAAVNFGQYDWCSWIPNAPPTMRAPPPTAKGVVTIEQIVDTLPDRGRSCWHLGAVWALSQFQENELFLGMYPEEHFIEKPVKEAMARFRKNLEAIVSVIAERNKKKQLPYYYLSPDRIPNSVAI
Procedure: The ability of the test compounds to inhibit the 5-LOX enzyme (IC50 value, μM) was detected using the Cayman Human Lipoxygenase Inhibitor Screening Assay (EIA) kit (catalog no. K980-100, Cayman Chemical). The IC50 values of test compounds were measured in µM according to the manufacturer’s instructions and reported method.

Compound	IC50 (ovine COX-1; IC50 COX1, lab report / text printing uM) [µM]	IC50 (ovine COX-1; IC50 COX-1) [µM]	COX1 %inh (ovine COX-1; conc 0.1 (μM)) [%]	COX1 %inh (ovine COX-1; conc 1 (μM)) [%]	COX1 %inh (ovine COX-1; conc 10 (μM)) [%]	COX1 %inh (ovine COX-1; conc 100 (μM)) [%]	TNF-α fold change [1]	melting point [°C]	S.I (IC50 COX-1/IC50 COX-2) (COX-2)	SI (COX-2)	IC50 (5-LOX enzyme) [µM]	5-LOX %inh (5-LOX enzyme; conc 0.1 (μM)) [%]	5-LOX %inh (5-LOX enzyme; conc 1 (μM)) [%]	5-LOX %inh (5-LOX enzyme; conc 10 (μM)) [%]	5-LOX %inh (5-LOX enzyme; conc 100 (μM)) [%]	IC50 (5-LOX enzyme; lab report) [µM]
Cc1ccc(N2C(=O)CSC2=NN=Cc2cn(S(C)(=O)=O)c3ccccc23)cc1 [Compound 5d]	5.79 ± 0.16	5.79 ± 0.16	8.83	27.6	53.7	83.6	0.21	271 to 273	8.59 and 8.60	8.596	1.1 ± 0.06	30.3	47.6	70.6	86.9	1.1 ± 0.06
COc1ccc(NC(=S)N/N=C/c2cn(S(C)(=O)=O)c3ccccc23)cc1 [Compound 4e, (E)-N-(4-Methoxyphenyl)-2{[1-(methylsulfonyl)-1H-indol 3yl]methylene}hydrazinecarbothioamide]		24.7 ± 0.7	5.87	14.4	28.6	73.5	0.26	214 to 216	30.17	30.17	4.08 ± 0.22	17.9	30.9	55.7	85	4.08 ± 0.22

From PMC9721424, “Novel N-methylsulfonyl-indole derivatives: biological activity and COX-2/5-LOX inhibitory effect with improved gastro protective profile and reduced cardio vascular risks” (Journal of Enzyme Inhibition and Medicinal Chemistry, 2022)
